The results in this text go back to the OPERA property sets (Mansouri et al. 2018).

For this data set the following is noted: for solubility: 22 °C.

≈ marks a conversion by molar mass, not a printed value.

Broadly, the logP is a log measure of how a compound divides between an organic and an aqueous phase. Lower therefore signals lower lipophilicity. In general, solubility refers to the dissolved amount per volume that the medium holds. The low end stands for a poorly soluble substance, the high end for a readily soluble substance.

`O=C(OCC(=O)N1CCC1C(=O)O)c1ccccc1` (stereo not drawn) showed a lipophilicity (logP) of 0.79. With `CC(=O)NC(=O)COC(=O)c1ccccc1`, the lipophilicity (logP) came to 1.24 and the solubility came out at 3980 µM (≈ 880 µg/mL). With `O=C(OCC(=O)N1CCCCCC1)c1ccccc1`, the solubility worked out at 2870 µM (≈ 750 µg/mL). As to `CC(NC(=O)COC(=O)c1ccccc1)C(N)=O` (stereo not drawn), the log partition coefficient (logP) turned out to be 0.42. Compound `CC(O)CN(CC(C)O)C(=O)COC(=O)c1ccccc1` (stereo not drawn) showed a lipophilicity (logP) of 0.66. On to `NC(=O)COC(=O)c1ccccc1`, for which the logP was determined as 0.69 and the solubility amounted to 22900 µM (≈ 4100 µg/mL). `CCCCCCN(CCCCCC)C(=O)COC(=O)c1ccccc1`: the log partition coefficient (logP) came out at 6.53. The compound `C=CCN(CC=C)C(=O)COC(=O)c1ccccc1` returned a solubility of 2740 µM (≈ 710 µg/mL). This lies in the millimolar range. `CCCOC(=O)n1c(-c2cscn2)nc2ccccc21` registered a log partition coefficient (logP) of 2.98. With `CN(C)C(=O)COC(=O)c1ccccc1`, the solubility was found to be 42500 µM (≈ 8800 µg/mL). Regarding `CC(=O)N(C)CCOC(=O)c1ccccc1`, the logP is 1.24. Compound `CCCC(=O)OCOC(=O)c1ccccc1OC(C)=O` showed a logP of 2.5. As for `CCCCNC(=O)COC(=O)c1ccccc1`, the logP amounted to 2.36 and the solubility came out at 1740 µM (≈ 410 µg/mL). On to `CCCNC(=O)COC(=O)c1ccccc1`, for which the logP worked out at 1.88 and the solubility came out at 2890 µM (≈ 640 µg/mL). `O=C(OCC(=O)N1CCOCC1)c1ccccc1` came in with a solubility of 16900 µM (≈ 4200 µg/mL).

Take `CCN(CC)C(=O)C(C)OC(=O)c1ccccc1` (stereo not drawn): the log partition coefficient (logP) was determined as 2.3.

`CCCCN(CCCC)C(=O)COC(=O)c1ccccc1` came in with a solubility of 275 µM (≈ 80 µg/mL). As for `O=C(OCC(=O)N1CCC(O)CC1)c1ccccc1`, the log partition coefficient (logP) came out at 0.63 and the solubility was found to be 44800 µM (≈ 11800 µg/mL). The compound `COCCN(CCOC)C(=O)COC(=O)c1ccccc1` returned a logP of 1.28. Turning to `CC(C)NC(=O)COC(=O)c1ccccc1`, the logP amounted to 1.73 and the solubility turned out to be 1850 µM (≈ 410 µg/mL). The matching figures for `CCCCCCNC(=O)COC(=O)c1ccccc1`: 2.81 and 125 µM (≈ 33 µg/mL).

In turn, `CCCCCCN(C)C(=O)COC(=O)c1ccccc1` yielded a logP of 2.99. In turn, `NC(=O)C1CCCN1C(=O)COC(=O)c1ccccc1` (stereo not drawn) came in with a logP of 0.2. `CNC(=O)COC(=O)c1ccccc1` displayed a log partition coefficient (logP) of 0.99 and a solubility of 19200 µM (≈ 3700 µg/mL). In turn, `CC(=O)N(C)C(=O)COC(=O)c1ccccc1` displayed a logP of 1.58 and a solubility of 1360 µM (≈ 320 µg/mL). In turn, `CCNC(=O)COC(=O)c1ccccc1` registered a logP of 1.28 and a solubility of 5790 µM (≈ 1200 µg/mL).

`C[C@H](NC(=O)COC(=O)c1ccccc1)C(N)=O`: the solubility stood at 1920 µM (≈ 480 µg/mL).

Compound `O=C(OCC(=O)N1CCCCC1)c1ccccc1` displayed a solubility of 3150 µM (≈ 780 µg/mL). The compound `O=C(COC(=O)c1ccccc1)NC(CO)(CO)CO` showed a lipophilicity (logP) of 0.25. Still for that read-out and setting: the result for `CC(=O)Oc1ccccc1C(=O)OCCN(C)C(C)=O` reads 1.46. In the case of `CCN(CC)C(=O)COC(=O)c1ccccc1`, the solubility turned out to be 8500 µM (≈ 2000 µg/mL). Turning to `CC(C)(C)NC(=O)COC(=O)c1ccccc1`, the logP was found to be 2.26 and the solubility was 1360 µM (≈ 320 µg/mL).
